This note sets out measurements from ChEMBL document CHEMBL1133048, “A QSAR study investigating the effect of L-alanine ester variation on the anti-HIV activity of some phosphoramidate derivatives of d4T” (2000).

As a reminder, the CC50 is the concentration that lowers cell viability or growth by half. A high value points to better tolerance by the cells.

Molecules are shown by their SMILES.

In experiment [1] the test system is CCRF-CEM. In words: Effective concentration required to inhibit 50% of HIV-1 induced giant cell formation in CEM cell cultures. It counts as functional, Homo sapiens.
In experiment [2] the test system is CCRF-CEM. In words: Effective concentration required to inhibit 50% of HIV-2 induced giant cell formation in CEM cell cultures. It is filed as functional, Homo sapiens.
Experiment [3] has as its system CCRF-CEM. Briefly: Cytotoxic concentration required to inhibit CEM cell proliferation by 50%. It is filed as functional. The following applies: Homo sapiens.

Turning to `Cc1cn(C2C=CC(COP(=O)(NC(C)C(=O)OCCCc3ccccc3)Oc3ccccc3)O2)c(=O)[nH]c1=O` (stereo not drawn), the “Log 1/EC50” value with CCRF-CEM [1] was 0; with CCRF-CEM [2] it was -0.217. In the experiment on CCRF-CEM [3], this compound had a CC50 of 250 µM.
Regarding `CCOC(=O)C(C)NP(=O)(OCC1C=CC(n2cc(C)c(=O)[nH]c2=O)O1)Oc1ccccc1` (stereo not drawn), the figures for the “Log 1/EC50” value with CCRF-CEM [1] and in the experiment with CCRF-CEM [2] were 1 and 1.16, respectively. The compound further yielded a CC50 with CCRF-CEM [3] of 55 µM.
In the same order, the values of `Cc1cn(C2C=CC(COP(=O)(NC(C)C(=O)OC(C)(C)C)Oc3ccccc3)O2)c(=O)[nH]c1=O` (stereo not drawn) are 0.071, -0.041 and 250 µM.
In the case of `Cc1cn(C2C=CC(COP(=O)(NC(C)C(=O)OCc3cccc4ccccc34)Oc3ccccc3)O2)c(=O)[nH]c1=O` (stereo not drawn), the “Log 1/EC50” value in the experiment on CCRF-CEM [1] came out at 1.52; with CCRF-CEM [2], 1.22. In addition, it took 21.6 µM to reach half-maximal cytotoxicity with CCRF-CEM [3] (CC50).
In the case of `CCCOC(=O)C(C)NP(=O)(OCC1C=CC(n2cc(C)c(=O)[nH]c2=O)O1)Oc1ccccc1` (stereo not drawn), the “Log 1/EC50” value with CCRF-CEM [1] came to 1.33; in the experiment with CCRF-CEM [2], 1.1. The same compound yielded a CC50 with CCRF-CEM [3] of 40 µM.
Turning to `Cc1cn(C2C=CC(COP(=O)(NC(C)C(=O)OC3CCCCC3)Oc3ccccc3)O2)c(=O)[nH]c1=O` (stereo not drawn), the “Log 1/EC50” value in the experiment on CCRF-CEM [1] came to 1.19; in the experiment with CCRF-CEM [2], 1.13. The CC50 in the experiment on CCRF-CEM [3] was determined as 51.4 µM.
Compound `CCCCOC(=O)C(C)NP(=O)(OCC1C=CC(n2cc(C)c(=O)[nH]c2=O)O1)Oc1ccccc1` (stereo not drawn) yielded a CC50 in the experiment on CCRF-CEM [3] of 60 µM.
Consider `Cc1cn(C2C=CC(COP(=O)(NC(C)C(=O)OCC(C)(C)C)Oc3ccccc3)O2)c(=O)[nH]c1=O` (stereo not drawn), for which the “Log 1/EC50” value came out at 1.3 with CCRF-CEM [1] and 1.35 in the experiment with CCRF-CEM [2]. In addition, in the experiment with CCRF-CEM [3], the CC50 turned out to be 43.5 µM.
With `Cc1cn(C2C=CC(COP(=O)(NC(C)C(=O)OCCc3ccccc3)Oc3ccccc3)O2)c(=O)[nH]c1=O` (stereo not drawn), the “Log 1/EC50” value was determined as 0.071 in the experiment with CCRF-CEM [1] and 0.155 in the experiment on CCRF-CEM [2]. For the same compound, the CC50 in the experiment on CCRF-CEM [3] was found to be 250 µM.
`COC(=O)C(C)NP(=O)(OC[C@@H]1C=C[C@H](n2cc(C)c(=O)[nH]c2=O)O1)Oc1ccccc1` (stereo partly drawn): the “Log 1/EC50” value in the experiment with CCRF-CEM [1] and in the experiment with CCRF-CEM [2] was 1.13 in each case. The same compound gave a CC50 in the experiment on CCRF-CEM [3] of 100 µM.
Regarding `CCCCCOC(=O)C(C)NP(=O)(OCC1C=CC(n2cc(C)c(=O)[nH]c2=O)O1)Oc1ccccc1` (stereo not drawn), the “Log 1/EC50” value came to 1.35 in the experiment with CCRF-CEM [1] and 1.1 in the experiment on CCRF-CEM [2]. In addition, in the experiment on CCRF-CEM [3], the CC50 came out at 40.5 µM.
For the compound `Cc1cn(C2C=CC(COP(=O)(NC(C)C(=O)OCC3CCCCC3)Oc3ccccc3)O2)c(=O)[nH]c1=O` (stereo not drawn), the “Log 1/EC50” value with CCRF-CEM [1] is given as 1.4. Further, in the experiment with CCRF-CEM [3], the midpoint of cytotoxicity, the CC50, lay at 12.1 µM.
As to `Cc1cn(C2C=CC(COP(=O)(NC(C)C(=O)Oc3ccccc3)Oc3ccccc3)O2)c(=O)[nH]c1=O` (stereo not drawn), the “Log 1/EC50” value turned out to be 1.6 in the experiment on CCRF-CEM [1] and 1.1 in the experiment with CCRF-CEM [2].
For the compound `CCCCCCOC(=O)C(C)NP(=O)(OCC1C=CC(n2cc(C)c(=O)[nH]c2=O)O1)Oc1ccccc1` (stereo not drawn), the “Log 1/EC50” value in the experiment with CCRF-CEM [1] is 1.22; with CCRF-CEM [2], 1.26. The midpoint of cytotoxicity with CCRF-CEM [3], the CC50, lay at 48 µM.
